{
  "source": "patent US12214058B2",
  "about": "“Imaging methods using deuterated compounds” (Genentech, Inc., priority 2014, dated 2025)",
  "key": {"[1]": {"test": "Microsomal stability assay, rhesus liver microsomes", "type": "in vitro ADME", "protocol": "Microsomal stability assays The tracer [^18F][A]-d2 or [^18F][A] was dissolved in potassium phosphate (Kpi) buffer (100 mM) at concentration 500-600 μCi/mL. The non-radioactive 7 and 10 were dissolved in Kpi buffer at 10 μM concentration. The reaction vessel was charged with human or mouse liver microsome suspension (12.5 μL, 20 mg/mL) followed by Kpi buffer (388 μL, 10 mM), NADPH (50 μL, 10 mM) and incubated at 37° C. for 5-10 min. A solution of the radioactive [^18F][A]-d2 or [^18F][A] (50 μL, […]) or non-radioactive 7 or 8 (50 μL, 10 μM) were added to the reaction vessel and the mixture was incubated at 37° C. Aliquots (50 μL) of the reaction mixture were taken at 5, 15 and 45 minutes post addition of the tested compound, mixed with ice-cold acetonitrile (100 μL) and centrifuged. The supernatant was analyzed by LCMS (System E). The radiolabeled tracers [^18F][A] and [^18F][A]-d2 (n=3) were incubated with human, rhesus or mouse liver microsome suspension with or without NADPH at 37° C. and the mixture was analyzed for a presence of radioactive metabolites at 5, 15 and 45 min. In the presence of mouse and rhesus liver microsomes, both the [^18F][A] and [^18F][A]-d2 metabolized rapidly to ^18F-fluoride (retention time (rt)=0.38 min), and two radioactive metabolites M2 and M1 (rt=1.2 and 1.4 min). […]"}, "[2]": {"test": "Dynamic microPET imaging in mice", "type": "in vivo, mice (C57BL/6)", "protocol": "MicroPET Imaging The PET imaging was performed on Inveon PET/CT scanner (Siemens Medical Solutions USA Inc.). Animals anesthetized with sevoflurane were placed head-first, prone position on the scanner bed and dynamic 45 min scans were initiated. Approximately 3.7 MBq of ^18F-radiolabeled tracer in isotonic solution (100-130 μL) was administered as 60 second intravenous infusion via the tail vein. Body temperature was measured by a rectal probe and maintained with warm air flow at 37° C. Full-body iterative image reconstructions were obtained using maximum a posteriori algorithm (MAP, hyperparameter β 0.05) and corrected for signal attenuation using the tissue density obtained from CT. Projections were created with PMOD 3.305 (PMOD Technologies, Ltd., Zurich, Switzerland) and used to obtain quantitative activity levels in each organ of interest using region-of-interest analysis."}, "[3]": {"test": "Microsomal stability assay, mouse liver microsomes", "type": "in vitro ADME", "settings": "radiolabeled, 5 min, n=3", "protocol": "Microsomal stability assays The tracer [^18F][A]-d2 or [^18F][A] was dissolved in potassium phosphate (Kpi) buffer (100 mM) at concentration 500-600 μCi/mL. The non-radioactive 7 and 10 were dissolved in Kpi buffer at 10 μM concentration. The reaction vessel was charged with human or mouse liver microsome suspension (12.5 μL, 20 mg/mL) followed by Kpi buffer (388 μL, 10 mM), NADPH (50 μL, 10 mM) and incubated at 37° C. for 5-10 min. A solution of the radioactive [^18F][A]-d2 or [^18F][A] (50 μL, 250-300 μCi) or non-radioactive 7 or 8 (50 μL, 10 μM) were added to the reaction vessel and the mixture was incubated at 37° C. Aliquots (50 μL) of the reaction mixture were taken at 5, 15 and 45 minutes post addition of the tested compound, mixed with ice-cold acetonitrile (100 μL) and centrifuged. The supernatant was analyzed by LCMS (System E)."}},
  "data": [
    {"smiles": "[2H]C([2H])([18F])CC1CCN(c2ccn3c(n2)nc2ccccc23)CC1", "note": "[[^18F][A]-d2, 1,1-dideutero-2-(1-(benzo[4,5]imidazo[1,2-a]pyrimidine-2-yl)piperidin-4-yl)-1-[^18F]fluoroethane]", "values": [
      {"measurement": "stability of parent compound compared with mouse liver microsomes", "setting": "[1]", "value": "slightly more stable"},
      {"measurement": "reduction in bone uptake versus [18F][A]", "setting": "[2]; in vivo PET", "value": "~54", "unit": "%"},
      {"measurement": "uptake in liver and kidneys, comparison of the two tracers", "setting": "[2]; n=6", "value": "indistinguishable"},
      {"measurement": "bone uptake", "setting": "[2]; n=6, 30-45 min post tracer injection", "value": "14.3±1.7", "unit": "% ID/g"},
      {"measurement": "peak uptake in brain", "setting": "[2]; n=6, i.v., dynamic PET", "value": "7.4±2.2", "unit": "% ID/g"},
      {"measurement": "amount of parent compound", "setting": "[3]", "value": "2.0±0.3", "unit": "%"}
    ]}
  ]
}
